From US20170296490A1, “USE OF LIGNIN-DERIVED ALDEHYDES AS ANTIFUNGAL AGENTS” (Wisconsin Alumni Research Foundation, priority 2016, published 2017)

How the values were obtained:
[1] = system: Alternaria solani; assay: Colony growth inhibition of Alternaria solani (FIG. 1); format: cell-based; conditions: for inhibition of Alternaria solani (summary statement): no concentration stated; for growth of the colony: A. solani, 250, 500 and 1,000 μg/mL vs untreated control (DMSO), dose-dependent
Procedure: FIG. 1 is a series of photographs illustrating dose-dependent inhibition of Alternaria solani by sinapaldehyde (top row) and coniferyl aldehyde (bottom row) at concentrations of 250 μg/mL, 500 μg/mL, and 1,000 μg/mL.
Without aggressive early control of the pathogen, early blight causes significant yield reductions.

[2] = system: Alternaria alternata; assay: Colony growth inhibition of Alternaria alternata (FIGS. 2, 3); format: cell-based; conditions: for inhibition of Alternaria alternata (summary statement): no concentration stated; for colony size: end of six days
Procedure: FIG. 2 is a graph depicting dose-dependent inhibition of Alternaria alternata by sinapyl aldehyde. Control=[…]. 250 μg/mL=∘. 500 μg/mL=▾. 1,000 μg/mL=Δ.
FIG. 3 is a graph depicting dose-dependent inhibition of Alternaria alternata by coniferyl aldehyde. Control=[…]. 250 μg/mL=∘. 500 μg/mL=▾. 1,000 μg/mL=Δ.
Similar to FIG. 1, FIG. 2 is a graph depicting dose-dependent inhibition of Alternaria alternata by sinapyl aldehyde. Time in days is on the X-axis; colony size in cm is on the Y-axis. […] A. alternata has also been implicated as a causative agent of asthma in humans. Salo et al. (October 2006) “Exposure to Alternaria alternata in US homes is associated with asthma symptoms” J Allergy Clin Immunol.; 118(4): 892-898.
(Control=[…]. 250 μg/mL=∘. 500 μg/mL=▾. 1,000 μg/mL=Δ.)

[3] = system: S. sclerotiorum; assay: Colony growth inhibition of S. sclerotiorum (FIG. 4); format: cell-based, Sclerotinia sclerotiorum; conditions: for inhibition of Sclerotinia sclerotiorium (summary statement): no concentration stated; for growth of the colony: S. sclerotiorum, 250, 500 and 1,000 μg/mL vs untreated control (DMSO), dose-dependent
Procedure: FIG. 4 is a series of photographs illustrating dose-dependent inhibition of Scelerotinia sclerotiorium by sinapyl aldehyde (top row) and coniferyl aldehyde (bottom row) at concentrations of 250 μg/mL, 500 μg/mL, and 1,000 μg/mL.
FIG. 4 is a series of photographs analogous to FIG. 1, but showing the ability of sinapldehyde and coniferyl aldehyde to attenuate the grown of S. sclerotiorum. […] White mold is particularly significant economically because it affects a wide range of hosts. It is also capable of infecting plants at any stage of growth makes. S. sclerotiorum, can survive on infected tissues, in the soil, and on living plants. It affects young seedlings, mature plants, and fruit in the field or in storage. […] It can also propagate throughout a harvested crop if conditions are not monitored carefully. It infects many extensively planted crops, including soybeans, green beans, sunflowers, canola, and peanuts.

[4] = system: Saccharomyces cerevisiae; assay: Growth inhibition of the yeast S. cerevisiae (FIG. 5); format: cell-based; conditions: for inhibition of S. cerevisiae: at 500 μg/mL; for inhibition of Saccharomyces cerevisiae (summary statement): no concentration stated
Excerpt: FIG. 5 is a graph depicting dose-dependent inhibition of the yeast S. cerevisiae by sinapyl aldehyde ([…]), coniferyl aldehyde (∘), and p-hydroxycoumaryl aldehyde (▾).
FIG. 5 depicts dose-dependent inhibition of S. cerevisiae by sinapyl aldehyde ([…]), coniferyl aldehyde (∘), and p-hydroxycoumaryl aldehyde (▾).

[5] = system: Candida albicans; assay: Growth inhibition of C. albicans (FIG. 6); format: cell-based; conditions: for inhibitory activity against C. albicans: at a concentration of 1000 μg/mL; for inhibition of Candida albicans (summary statement): no concentration stated
Excerpt: FIG. 6 is a graph depicting dose-dependent inhibition of the yeast C. albicans by sinapyl aldehyde ([…]), coniferyl aldehyde (∘), and p-hydroxycoumaryl aldehyde (▾).
FIG. 6 depicts dose-dependent inhibition of C. albicans by sinapyl aldehyde ([…]), coniferyl aldehyde (∘), and p-hydroxycoumaryl aldehyde (▾). Here, the inhibition was not as pronounced as against S. cerevisiae.

SMILES	inhibition of Alternaria solani (summary statement) [1]	inhibition of Alternaria alternata (summary statement) [2]	inhibition of Sclerotinia sclerotiorium (summary statement) [3]	inhibition of S. cerevisiae [4]	inhibition of Saccharomyces cerevisiae (summary statement) [4]	inhibitory activity against C. albicans [5]	inhibition of Candida albicans (summary statement) [5]	growth of the colony [1]	colony size ([2]; A. alternata, 250 μg/mL)	colony size ([2]; A. alternata, 500 μg/mL)	colony size ([2]; A. alternata, 1,000 μg/mL)	growth of the colony [3]	growth rates and colony size ([2]; A. alternata, 250, 500 and 1,000 μg/mL treatment groups, six days)
O=C/C=C/c1ccc(O)cc1 [p-hydroxycoumaryl aldehyde]	show inhibition	show inhibition	show inhibition	very significant inhibition	show inhibition	very signification inhibitory activity	show inhibition						
COc1cc(/C=C/C=O)cc(OC)c1O [sinapyl aldehyde]	show inhibition	show inhibition	show inhibition	very significant inhibition	show inhibition		show inhibition	very significantly inhibited	smaller than the untreated colony	smaller still	the smallest of those tested	very significantly inhibited	
COc1cc(/C=C/C=O)ccc1O [coniferyl aldehyde]	show inhibition	show inhibition	show inhibition	very significant inhibition	show inhibition	very signification inhibitory activity	show inhibition	very significantly inhibited				very significantly inhibited	progressively attenuated growth rates and smaller colony size
